Entries after “also recorded” stand apart in the source; their conditions may differ.
Assays:
MTNR1B = biological target: T1, MTNR1B (Homo sapiens, UniProt P49286); test: dCyFIRscreen profiling in yeast GPCR-Gα reporter strains; format: cell-based
T1 construct: expressed in transfected cells; host or cells: Saccharomyces cerevisiae BY4741-derived GPCR-Gα reporter strains, X-2 landing pad
T1 sequence (P49286 1-362): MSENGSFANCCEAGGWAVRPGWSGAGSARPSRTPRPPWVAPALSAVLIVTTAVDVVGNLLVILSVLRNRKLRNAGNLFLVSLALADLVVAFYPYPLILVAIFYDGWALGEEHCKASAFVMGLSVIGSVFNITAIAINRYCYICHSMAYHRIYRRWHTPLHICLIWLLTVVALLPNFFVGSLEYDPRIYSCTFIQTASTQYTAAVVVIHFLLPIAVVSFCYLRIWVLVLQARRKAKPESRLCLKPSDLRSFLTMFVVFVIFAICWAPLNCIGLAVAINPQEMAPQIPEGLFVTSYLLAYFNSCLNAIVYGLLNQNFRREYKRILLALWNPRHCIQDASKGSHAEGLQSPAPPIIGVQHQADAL
Method: (§1) Individual Gα reporter strains were grown in SCD LoFo pH=7.0 at 30° C. to an OD=1.0 in a 2.0 mL 96-well DeepWell block (Greiner; 780271-FD). Cells were normalized to an OD of 0.1 in SCD LoFo pH=7.0 using a Biomek NXp liquid-handling robot. 10× ligand/vehicle stocks were prepared (see Table 2) and 4 μL were distributed to each well of a 384-well plate (Greiner; 781096) in quadruplicate using a Biomek NXp. 36 μL normalized cells were distributed to each well containing the appropriate 10× ligand/vehicle. Plates were sealed with a breathable cover (Diversified Biotech; BERM-2000) and incubated at 30° C. Fluorescence readings were collected after 18 hours using a plate reader (ClarioStar, BMG LabTech, Offenburg, Germany) (bottom read, 10 flashes/well, excitation filter: 430-10 nm, dichroic filter: LP 458 nm, emission filter: 482-16 nm, gain=1300 (1500 for FIG. 1B.)). Absorbance readings were also collected after 18 hours using the same instrument (22 flashes/well, excitation filter: 600 nm).
(§2) All titration curves were analyzed using Prism software and the pharmacological fitting function log(agonist) vs. response—Variable slope (four parameters) (GraphPad Software, San Diego, USA).

MTNR1A = biological target: T2, MTNR1A (Homo sapiens, UniProt P48039); test: dCyFIRscreen profiling and titrations in yeast GPCR-Gα reporter strains; format: cell-based
T2 construct: expressed in transfected cells; host or cells: Saccharomyces cerevisiae BY4741-derived GPCR-Gα reporter strains, X-2 landing pad
T2 sequence (P48039 whole entry): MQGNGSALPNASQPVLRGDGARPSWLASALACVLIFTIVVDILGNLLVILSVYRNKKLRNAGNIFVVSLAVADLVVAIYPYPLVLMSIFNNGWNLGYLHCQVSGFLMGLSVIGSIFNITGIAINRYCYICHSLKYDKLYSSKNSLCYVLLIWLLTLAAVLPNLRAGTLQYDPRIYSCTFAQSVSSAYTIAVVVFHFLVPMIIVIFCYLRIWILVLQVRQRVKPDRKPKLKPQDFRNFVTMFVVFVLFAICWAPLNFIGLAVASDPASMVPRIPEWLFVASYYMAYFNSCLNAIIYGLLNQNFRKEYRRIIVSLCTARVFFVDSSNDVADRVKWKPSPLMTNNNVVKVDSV
Method: as §1, §2

ADRA2B = biological target: T3, ADRA2B (Homo sapiens, UniProt P18089); test: as above; format: cell-based
T3 construct: expressed in transfected cells; host or cells: Saccharomyces cerevisiae BY4741-derived GPCR-Gα reporter strains, X-2 landing pad
T3 sequence (P18089 1-450): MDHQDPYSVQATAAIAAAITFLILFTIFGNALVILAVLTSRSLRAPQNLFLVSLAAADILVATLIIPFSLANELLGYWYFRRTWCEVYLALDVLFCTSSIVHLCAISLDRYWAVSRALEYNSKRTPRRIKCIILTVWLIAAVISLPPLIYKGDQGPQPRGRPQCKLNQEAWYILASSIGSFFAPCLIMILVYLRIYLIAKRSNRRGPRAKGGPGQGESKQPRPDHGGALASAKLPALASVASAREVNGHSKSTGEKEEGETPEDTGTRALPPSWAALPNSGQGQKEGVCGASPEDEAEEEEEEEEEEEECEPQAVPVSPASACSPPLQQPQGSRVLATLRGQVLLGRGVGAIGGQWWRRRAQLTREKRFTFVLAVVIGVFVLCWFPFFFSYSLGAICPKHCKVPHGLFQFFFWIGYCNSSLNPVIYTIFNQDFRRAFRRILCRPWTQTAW
Method: dCyFIRscreen protocol. […] Cells were normalized to an OD of 0.1 in SCD LoFo pH=7.0 using a Biomek NXp liquid-handling robot. […] 36 μL normalized cells were distributed to each well containing the appropriate 10× ligand/vehicle. Plates were sealed with a breathable cover (Diversified Biotech; BERM-2000) and incubated at 30° C. […] Absorbance readings were also collected after 18 hours using the same instrument (22 flashes/well, excitation filter: 600 nm).
Titration Analyses. All titration curves were analyzed using Prism software and the pharmacological fitting function log(agonist) vs. response—Variable slope (four parameters) (GraphPad Software, San Diego, USA).

[1] = test system: 300-plex of GPCR-Gα reporter strains; test: dCyFIRplex FACS sorting of agonist-treated 300-plex; format: cell-based, Saccharomyces cerevisiae; settings: following agonist treatment
Method: dCyFIRplex protocol. […] 10× ligand/vehicle stocks were added to individual wells of a DeepWell block. The consolidated 300-plex or control strains were then added to each well and grown in the presence of ligand/vehicle overnight, so that each culture would reach an OD=4.0 before dCyFIRplex profiling. Samples were washed with sterile ddH2O and normalized to an OD=2.0 in SCD LoFo pH=7.0. Tracer cells were added to each sample at a 1:301 ratio. The final mixture was then transferred into a glass sample tube (USA Scientific; 1450-2810) and used for cell sorting. A BD FACSAria-II cell sorter was used for all dCyFIRplex experiments to assess mTq2 (405 nm excitation, 450/50 nm emission) and mRuby3 fluorescence (535 nm excitation, 610/20 nm emission). A gating strategy was set using the three control samples (DI P1 mTq2, individual Gα reporter strains lacking an integrated receptor, and DI P1 mRuby3) such that tracer cells and any cell expressing mTq2 was sorted into a 14 mL collection tube (USA Scientific; 1485-2810) containing 500 μL YPD. Samples treated with water or 500 μM adenosine (well-characterized using dCyFIRscreen, inexpensive, and water-soluble) were used to build a standard curve measuring total events in the mRuby3 and mTq2 positive gates. The standard curve from a water-treated 300-plex was used to determine the number of tracer events that would correspond to 15,000 events in the mTq2 gate for a water-treated 300-plex. Each sample was sorted until the standardized tracer count was reached. Sorted cells were enriched by outgrowth in 5 mL YPD at 30° C. with shaking (200 rpm) for 18 hours. Cells were harvested by centrifugation at 3,000×g for 5 min, and resuspended in 1 mL ddH2O. Cells were either processed immediately for qPCR deconvolution or frozen in 100 μL aliquots for storage at −20° C. The set of samples comparatively deconvoluted by qPCR and NanoString methods were derived from aliquots of the same dCyFIRplex experiments. […]

S1PR1 = biological target: T4, S1PR1 (Homo sapiens, UniProt P21453); test: dCyFIRscreen profiling and titrations in yeast GPCR-Gα reporter strains; format: cell-based
T4 construct: expressed in transfected cells; host or cells: Saccharomyces cerevisiae BY4741-derived GPCR-Gα reporter strains, X-2 landing pad
T4 sequence (P21453 whole entry): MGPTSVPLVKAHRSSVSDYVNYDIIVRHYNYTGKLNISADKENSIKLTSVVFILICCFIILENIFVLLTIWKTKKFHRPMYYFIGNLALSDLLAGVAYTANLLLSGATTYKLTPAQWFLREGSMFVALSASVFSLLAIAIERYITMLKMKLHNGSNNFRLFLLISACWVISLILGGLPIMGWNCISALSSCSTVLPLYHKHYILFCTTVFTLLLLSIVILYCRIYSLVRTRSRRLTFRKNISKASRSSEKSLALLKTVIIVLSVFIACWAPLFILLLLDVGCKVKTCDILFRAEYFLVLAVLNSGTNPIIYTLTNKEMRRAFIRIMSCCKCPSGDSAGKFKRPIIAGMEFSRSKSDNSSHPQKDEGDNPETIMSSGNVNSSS
Method: as §1, §2

LPAR1 = biological target: T5, LPAR1 (Homo sapiens, UniProt Q92633); test: as above; format: cell-based
T5 construct: expressed in transfected cells; host or cells: Saccharomyces cerevisiae BY4741-derived GPCR-Gα reporter strains, X-2 landing pad
T5 sequence (Q92633 whole entry): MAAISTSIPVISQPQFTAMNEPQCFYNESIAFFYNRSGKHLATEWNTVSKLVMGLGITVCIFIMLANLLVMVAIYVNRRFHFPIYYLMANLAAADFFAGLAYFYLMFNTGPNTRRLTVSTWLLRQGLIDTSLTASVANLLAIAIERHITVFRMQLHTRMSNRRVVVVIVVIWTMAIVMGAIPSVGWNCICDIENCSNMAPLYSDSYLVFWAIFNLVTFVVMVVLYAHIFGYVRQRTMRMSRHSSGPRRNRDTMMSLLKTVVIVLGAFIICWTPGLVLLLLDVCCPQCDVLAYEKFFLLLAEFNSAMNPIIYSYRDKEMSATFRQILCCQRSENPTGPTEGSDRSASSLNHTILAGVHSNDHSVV
Method: as §1, §2

S1PR2 = biological target: T6, S1PR2 (Homo sapiens, UniProt O95136); test: as above; format: cell-based
T6 construct: expressed in transfected cells; host or cells: Saccharomyces cerevisiae BY4741-derived GPCR-Gα reporter strains, X-2 landing pad
T6 sequence (O95136 whole entry): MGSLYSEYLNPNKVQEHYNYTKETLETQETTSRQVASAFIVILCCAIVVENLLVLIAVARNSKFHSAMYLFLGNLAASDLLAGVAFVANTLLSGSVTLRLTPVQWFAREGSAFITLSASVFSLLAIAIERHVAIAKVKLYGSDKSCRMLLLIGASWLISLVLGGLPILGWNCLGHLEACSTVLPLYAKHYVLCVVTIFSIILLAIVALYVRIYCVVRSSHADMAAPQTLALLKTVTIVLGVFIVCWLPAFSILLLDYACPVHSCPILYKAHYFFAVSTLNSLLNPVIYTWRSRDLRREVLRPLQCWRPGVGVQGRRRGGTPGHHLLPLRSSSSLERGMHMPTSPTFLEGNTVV
Method: as §1, §2

HTR4 = biological target: T7, HTR4 (Homo sapiens, UniProt Q13639); test: as above; format: cell-based
T7 construct: expressed in transfected cells; host or cells: Saccharomyces cerevisiae BY4741-derived GPCR-Gα reporter strains, X-2 landing pad
T7 sequence (Q13639 whole entry): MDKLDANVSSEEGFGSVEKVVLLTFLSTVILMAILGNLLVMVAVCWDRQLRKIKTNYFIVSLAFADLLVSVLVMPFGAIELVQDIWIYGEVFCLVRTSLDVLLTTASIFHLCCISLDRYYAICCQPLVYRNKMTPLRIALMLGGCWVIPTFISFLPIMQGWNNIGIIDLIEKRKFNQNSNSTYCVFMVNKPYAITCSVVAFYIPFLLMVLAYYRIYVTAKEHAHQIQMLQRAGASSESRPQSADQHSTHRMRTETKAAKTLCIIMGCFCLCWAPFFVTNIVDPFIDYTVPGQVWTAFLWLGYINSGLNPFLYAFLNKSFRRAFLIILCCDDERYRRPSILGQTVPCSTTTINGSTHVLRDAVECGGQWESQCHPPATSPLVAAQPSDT
Method: dCyFIRscreen protocol. Individual Gα reporter strains were grown in SCD LoFo pH=7.0 at 30° C. to an OD=1.0 in a 2.0 mL 96-well DeepWell block (Greiner; 780271-FD). Cells were normalized to an OD of 0.1 in SCD LoFo pH=7.0 using a Biomek NXp liquid-handling robot. 10× ligand/vehicle stocks were prepared (see Table 2) and 4 μL were distributed to each well of a 384-well plate (Greiner; 781096) in quadruplicate using a Biomek NXp. 36 μL normalized cells were distributed to each well containing the appropriate 10× ligand/vehicle. Plates were sealed with a breathable cover (Diversified Biotech; BERM-2000) and incubated at 30° C. Fluorescence readings were collected after 18 hours using a plate reader (ClarioStar, BMG LabTech, Offenburg, Germany) (bottom read, 10 flashes/well, excitation filter: 430-10 nm, dichroic filter: LP 458 nm, emission filter: 482-16 nm, gain=1300 (1500 for FIG. 1B.)). Absorbance readings were also collected after 18 hours using the same instrument (22 flashes/well, excitation filter: 600 nm).
as §2

LPAR4 = biological target: T8, LPAR4 (Homo sapiens, UniProt Q99677); test: dCyFIRscreen profiling in yeast GPCR-Gα reporter strains; format: cell-based
T8 construct: expressed in transfected cells; host or cells: Saccharomyces cerevisiae BY4741-derived GPCR-Gα reporter strains, X-2 landing pad
T8 sequence (Q99677 whole entry): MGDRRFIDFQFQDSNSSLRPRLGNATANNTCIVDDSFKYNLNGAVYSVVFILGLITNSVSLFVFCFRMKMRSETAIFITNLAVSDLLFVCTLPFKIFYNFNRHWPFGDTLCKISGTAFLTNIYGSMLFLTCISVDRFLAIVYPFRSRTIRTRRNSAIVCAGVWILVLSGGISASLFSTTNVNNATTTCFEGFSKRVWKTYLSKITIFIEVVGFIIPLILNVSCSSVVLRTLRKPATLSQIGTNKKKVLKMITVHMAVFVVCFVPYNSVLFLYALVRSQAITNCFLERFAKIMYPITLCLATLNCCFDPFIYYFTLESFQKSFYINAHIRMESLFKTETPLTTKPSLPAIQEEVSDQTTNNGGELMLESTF
Method: as §1

GPR4 = biological target: T9, GPR4 (Homo sapiens, UniProt P46093); test: as above; format: cell-based
T9 construct: expressed in transfected cells; host or cells: Saccharomyces cerevisiae BY4741-derived GPCR-Gα reporter strains, X-2 landing pad
T9 sequence (P46093 whole entry): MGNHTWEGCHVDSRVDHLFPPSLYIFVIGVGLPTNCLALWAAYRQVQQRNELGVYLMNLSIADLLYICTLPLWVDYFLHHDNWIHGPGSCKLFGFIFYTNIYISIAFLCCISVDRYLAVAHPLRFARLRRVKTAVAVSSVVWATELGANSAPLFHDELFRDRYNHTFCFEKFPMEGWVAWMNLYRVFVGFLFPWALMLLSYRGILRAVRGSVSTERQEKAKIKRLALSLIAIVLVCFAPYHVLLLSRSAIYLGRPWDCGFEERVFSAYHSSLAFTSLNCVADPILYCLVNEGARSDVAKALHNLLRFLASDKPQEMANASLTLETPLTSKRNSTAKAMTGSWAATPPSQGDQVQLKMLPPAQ
Method: as §1

HCAR2 = biological target: T10, HCAR2 (Homo sapiens, UniProt Q8TDS4); test: as above; format: cell-based
T10 construct: expressed in transfected cells; host or cells: Saccharomyces cerevisiae BY4741-derived GPCR-Gα reporter strains, X-2 landing pad
T10 sequence (Q8TDS4 whole entry): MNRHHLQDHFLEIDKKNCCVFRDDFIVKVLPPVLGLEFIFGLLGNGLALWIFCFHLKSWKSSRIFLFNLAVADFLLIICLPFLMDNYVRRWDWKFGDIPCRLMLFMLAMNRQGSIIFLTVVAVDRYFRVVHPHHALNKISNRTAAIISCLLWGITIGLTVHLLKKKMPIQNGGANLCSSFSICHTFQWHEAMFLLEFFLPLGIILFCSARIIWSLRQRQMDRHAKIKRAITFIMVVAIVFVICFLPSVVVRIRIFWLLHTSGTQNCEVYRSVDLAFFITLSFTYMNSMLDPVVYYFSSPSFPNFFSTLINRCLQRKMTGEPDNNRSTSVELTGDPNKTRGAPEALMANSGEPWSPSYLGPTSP
Method: as §1

GPR68 = biological target: T11, GPR68 (Homo sapiens, UniProt Q15743); test: dCyFIRscreen profiling and titrations in yeast GPCR-Gα reporter strains; format: cell-based
T11 construct: expressed in transfected cells; host or cells: Saccharomyces cerevisiae BY4741-derived GPCR-Gα reporter strains, X-2 landing pad
T11 sequence (Q15743 whole entry): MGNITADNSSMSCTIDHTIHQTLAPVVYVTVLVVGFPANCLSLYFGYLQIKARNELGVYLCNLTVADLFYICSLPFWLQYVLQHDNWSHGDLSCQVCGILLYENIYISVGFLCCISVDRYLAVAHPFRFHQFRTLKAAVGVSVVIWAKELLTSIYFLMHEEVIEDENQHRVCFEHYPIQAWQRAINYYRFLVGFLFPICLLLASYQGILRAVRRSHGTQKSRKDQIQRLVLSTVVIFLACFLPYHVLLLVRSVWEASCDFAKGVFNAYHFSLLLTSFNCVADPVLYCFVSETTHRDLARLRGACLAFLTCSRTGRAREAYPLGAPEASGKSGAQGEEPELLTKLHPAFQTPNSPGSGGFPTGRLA
Method: as §1, §2

GPR35 = biological target: T12, GPR35 (Homo sapiens, UniProt Q9HC97); test: as above; format: cell-based
T12 construct: expressed in transfected cells; host or cells: Saccharomyces cerevisiae BY4741-derived GPCR-Gα reporter strains, X-2 landing pad
T12 sequence (Q9HC97 whole entry): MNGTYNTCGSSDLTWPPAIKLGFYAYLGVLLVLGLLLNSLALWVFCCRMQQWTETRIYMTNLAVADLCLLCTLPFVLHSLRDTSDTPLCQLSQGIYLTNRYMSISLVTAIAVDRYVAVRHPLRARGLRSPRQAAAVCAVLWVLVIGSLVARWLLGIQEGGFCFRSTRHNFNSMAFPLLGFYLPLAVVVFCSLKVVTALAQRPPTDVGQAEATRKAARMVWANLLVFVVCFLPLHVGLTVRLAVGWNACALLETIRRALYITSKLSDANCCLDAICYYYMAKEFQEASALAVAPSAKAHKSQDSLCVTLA
Method: as §1, §2

HCAR3 = HCAR3 (Homo sapiens, UniProt P49019); test: as above; format: cell-based; design: expressed in transfected cells
HCAR3, sequence (P49019 whole entry): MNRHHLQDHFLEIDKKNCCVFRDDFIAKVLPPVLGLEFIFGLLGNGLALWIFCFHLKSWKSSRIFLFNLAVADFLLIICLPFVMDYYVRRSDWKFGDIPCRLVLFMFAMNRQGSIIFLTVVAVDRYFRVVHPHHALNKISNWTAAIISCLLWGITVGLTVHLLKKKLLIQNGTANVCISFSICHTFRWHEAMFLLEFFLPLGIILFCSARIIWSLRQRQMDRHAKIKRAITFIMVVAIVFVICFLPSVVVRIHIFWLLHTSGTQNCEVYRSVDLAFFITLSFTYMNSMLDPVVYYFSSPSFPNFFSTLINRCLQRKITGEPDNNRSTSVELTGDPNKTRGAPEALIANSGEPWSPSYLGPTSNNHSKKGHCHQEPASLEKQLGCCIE
Method: as §1, §2

ADORA2A = biological target: T13, ADORA2A (Homo sapiens, UniProt P29274); test: as above; format: cell-based
T13 construct: expressed in transfected cells; host or cells: Saccharomyces cerevisiae BY4741-derived GPCR-Gα reporter strains, X-2 landing pad
T13 sequence (P29274 whole entry): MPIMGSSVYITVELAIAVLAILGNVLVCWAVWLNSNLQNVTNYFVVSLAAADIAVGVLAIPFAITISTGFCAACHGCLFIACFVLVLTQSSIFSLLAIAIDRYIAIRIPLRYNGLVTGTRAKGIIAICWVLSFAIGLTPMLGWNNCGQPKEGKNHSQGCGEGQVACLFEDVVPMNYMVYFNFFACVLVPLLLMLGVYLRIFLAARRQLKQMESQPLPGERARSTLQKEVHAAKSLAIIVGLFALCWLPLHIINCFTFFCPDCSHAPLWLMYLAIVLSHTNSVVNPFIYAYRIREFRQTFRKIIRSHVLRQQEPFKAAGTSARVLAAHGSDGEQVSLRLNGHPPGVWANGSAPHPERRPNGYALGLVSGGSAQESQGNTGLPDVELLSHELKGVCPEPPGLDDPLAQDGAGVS
Method: as §1, §2

NCCc1c[nH]c2ccc(O)cc12 [serotonin]
activity at MTNR1B in words (mode of action) (MTNR1B): not find that serotonin agonized
activity at MTNR1A in words (mode of action, potency range) (MTNR1A): micromolar interactions
EC50 (MTNR1A; titration, yeast GPCR-Gα reporter strain): 60 µM
activity at ADRA2B in words (mode of action, potency range) (ADRA2B): micromolar interactions

CCCCCCCCCCCCC/C=C/[C@@H](O)[C@@H](N)COP(=O)(O)O [sphingosine-1-phosphate]
active cell pool, fraction of cell-sorting events for the 300-plex [1]: 1.8%

CCCCCCCCCCC/C=C\CCCCC(=O)O [petroselinic acid]
activity at S1PR1 in words (mode of action, potency range) (S1PR1): agonist specific for
activity at LPAR1 in words (mode of action) (LPAR1): agonist specific for
activity at S1PR2 in words (mode of action, potency range) (S1PR2): agonist specific for

lysophosphatidic acid [LPA]
activity at S1PR1 in words (mode of action, potency range) (S1PR1): higher EC50 values compared to LPAR1
activity at S1PR2 in words (mode of action, potency range) (S1PR2): micromolar interactions; also recorded: higher EC50 values compared to LPAR1

NCCc1ccccc1 [PEA, phenethylamine]
activity at ADRA2B in words (mode of action, potency range) (ADRA2B): micromolar

NCCc1c[nH]c2ccccc12 [tryptamine]
activity at MTNR1B in words (mode of action) (MTNR1B): did not activate
activity at HTR4 in words (mode of action) (HTR4): did activate
EC50 at HTR4 (in words) (HTR4; titration): micromolar range
activity at MTNR1A in words (mode of action, potency range) (MTNR1A): did not activate
activity at ADRA2B in words (mode of action, potency range) (ADRA2B): did activate
EC50 at ADRA2B (in words) (ADRA2B; titration): micromolar range

C[C@H](N)C(=O)NCC(=O)N[C@H]1CSSC[C@@H](C(=O)O)NC(=O)[C@H](CO)NC(=O)[C@H]([C@@H](C)O)NC(=O)[C@H](Cc2ccccc2)NC(=O)[C@H]([C@@H](C)O)NC(=O)[C@H](CCCCN)NC(=O)[C@H](Cc2c[nH]c3ccccc23)NC(=O)[C@H](Cc2ccccc2)NC(=O)[C@H](Cc2ccccc2)NC(=O)[C@H](CC(N)=O)NC(=O)[C@H](CCCCN)NC1=O [SRIF-14, Somatostatin-14]
active cell pool, fraction of cell-sorting events for the 300-plex [1]: 1.5%

phenylethanolamine [PEOA]
activity at ADRA2B in words (mode of action, potency range) (ADRA2B): nanomolar

C[C@]12CC[C@@H](O)C[C@@H]1CC[C@@H]1[C@@H]2CC[C@]2(C)C(=O)CC[C@@H]12 [androsterone]
activity at LPAR4 in words (mode of action) (LPAR4): increase receptor signaling
activity at GPR4 in words (mode of action) (GPR4): increase receptor signaling and PAMs
activity at HCAR2 in words (mode of action) (HCAR2): increase receptor signaling
activity at GPR68 in words (mode of action) (GPR68): increase receptor signaling and PAMs
activity at GPR35 in words (mode of action, potency range) (GPR35): increase receptor signaling
activity at LPAR1 in words (mode of action) (LPAR1): increase receptor signaling
activity at HCAR3 in words (mode of action, potency range) (HCAR3): increase receptor signaling and PAMs
activity at ADORA2A in words (mode of action) (ADORA2A): increase receptor signaling

Source: patent publication US20230053864A1, “Methods for Identifying Modulators of G Protein-Coupled Receptors” (University of Miami, priority 2019, published 2023)
